“Also recorded” adds a separate entry of the source.
Experiments:
[1] = system: FOCUS cells; assay: invasion assay using matrigel coated membrane; assay type: cell-based, human; conditions: 6 hours, compared to DMSO control
Protocol: (§1) The β-hydroxylase activity is required for ASPH to mediate its effects on cell motility. Directional motility was measured using Boyden chamber-type culture inserts equipped with porous membranes. FOCUS cells were pretreated with 5 μM of MO-1-1100 and MO-1-500 β-hydroxylase inhibitor for 24 hours, and then placed into the upper chamber. Migration was allowed to proceed for 30 min. ATPLite was used to quantify viable cell density. The cells in the upper well and upper surface of membrane reflects the number of non-migrating cells, luminescence measured at the bottom surface of the membrane reflects the number of migrating and non-adherent cells and luminescence measured in the bottom well was reflect migrating and non-adherent cells. […] Cell invasiveness was assessed by invasion assay using matrigel coated membrane, in which cells were allowed to proceed for 6 hours; those found adhered on the bottom surface of membrane were regarded as invading cells.

[2] = system: FOCUS cells; assay: directional motility, Boyden chamber-type culture inserts; assay type: cell-based, human; conditions: 5 μM pretreatment for 24 hours, migration 30 min
Protocol: as §1

[3] = system: HPAFH AsPC-1 human PC cell line; assay: subcutaneous pancreatic cancer tumor growth in nude mice; assay type: in vivo
Protocol: FIG. 4A is a line graph showing tumor volume, and FIG. 4B is a bar graph showing tomor weight. […] There were 15 nude mice in each group. i.p. injection (20 mg/kg/mouse). Vertical bars; standard error.
The HPAFH AsPC-1 human PC cell line which expresses a high level of ASPH was implanted (5×10^6 cells s.c.) into the back of nude mice. Tumors were allowed to grow to approximately 100 mm^3 after one week, and MO-1-1100 was then administered intraperitoneal (i.p.) at a concentration of 50 mg/kg. The treatment regimen as shown in FIGS. 4A-B included i.p. injections on a daily basis for five days followed by every other day until the experiment was terminated due to the large size of tumors observed in the control group that received a DMSO vehicle injection. […] There were 15 nude mice in each group (control vs. treatment).

[4] = system: FOCUS HCC cells; assay: colony formation assay; assay type: cell-based, human; conditions: 5 μM
Protocol: (§2) A MTT assay was performed to evaluate the effect of MO-1-1100 on cell proliferation and viability. MTT is reduced to purple formazan in living cells. FOCUS cells were used as a high ASPH expressing human HCC cell line. […] The MTT assay measures cellular metabolic activity via NAD(P)H-dependent cellular oxidoreductase enzymes. […] In order to evaluate the effect of long-term exposure of MO-1-1100, the colony formation assay (an assay of malignant potential and phenotype) in which cells were treated with inhibitor for 3 weeks was performed.

[5] = system: NIH 3T3 cells; assay: cell viability; assay type: cell-based, mouse; conditions: 5 μM, NIH 3T3 cells with no expression of ASPH
[6] = system: FOCUS cells; assay: MTT assay (cell proliferation, metabolic activity); assay type: cell-based, human; conditions: 24 hours
Protocol: as §2

[7] = molecular target: T1, ASPH (Homo sapiens, UniProt Q12797); assay: binding to ASPH by isothermal titration calorimetry
T1 sequence (Q12797 1-758): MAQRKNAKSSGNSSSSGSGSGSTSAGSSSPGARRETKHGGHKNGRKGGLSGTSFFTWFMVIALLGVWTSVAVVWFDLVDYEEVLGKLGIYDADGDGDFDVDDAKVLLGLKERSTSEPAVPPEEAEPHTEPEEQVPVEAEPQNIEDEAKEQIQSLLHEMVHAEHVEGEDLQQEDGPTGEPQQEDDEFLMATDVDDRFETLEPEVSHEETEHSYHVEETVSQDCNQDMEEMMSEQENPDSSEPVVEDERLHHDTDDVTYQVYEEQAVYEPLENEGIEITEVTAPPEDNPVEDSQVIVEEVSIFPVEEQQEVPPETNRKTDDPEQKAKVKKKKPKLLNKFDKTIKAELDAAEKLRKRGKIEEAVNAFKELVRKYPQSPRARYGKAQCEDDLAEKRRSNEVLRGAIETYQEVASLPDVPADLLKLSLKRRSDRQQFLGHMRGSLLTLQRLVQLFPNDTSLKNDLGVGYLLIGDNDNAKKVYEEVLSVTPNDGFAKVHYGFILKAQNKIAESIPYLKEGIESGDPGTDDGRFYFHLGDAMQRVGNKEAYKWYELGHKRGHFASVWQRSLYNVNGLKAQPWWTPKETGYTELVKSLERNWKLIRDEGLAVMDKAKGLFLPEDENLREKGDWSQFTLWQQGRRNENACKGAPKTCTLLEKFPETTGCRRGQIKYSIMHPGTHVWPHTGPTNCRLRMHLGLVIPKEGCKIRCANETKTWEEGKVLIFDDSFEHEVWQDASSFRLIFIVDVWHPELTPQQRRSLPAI
Excerpt: In the second step arylhydroxytetronimide was sulfonylated with phenylmethansulfonyl chloride in dry tetrahydrofuran to yield compounds of formula 1 (shown below). Compounds were characterized by 1H and 13C nuclear magnetic resonance, high resolution mass spectroscopy, high performance liquid chromatography, infra-red spectroscopy, melting point, elemental analysis and binding to ASPH by isothermal titration calorimetry.
Candidate parent compounds were selected as inhibitors for β-hydroxylase activity based on crystal structure of the catalytic site in the C-terminal region of ASPH and computer assisted drug design.

[8] = system: FOCUS; assay: cell viability; assay type: cell-based, human; conditions: 5 μM
Protocol: as §2

[9] = system: Huh7; assay: cell viability; assay type: cell-based, human; conditions: 5 μM
[10] = system: human HCC cell line FOCUS; assay: subcutaneous xenograft of human hepatocellular carcinoma; assay type: in vivo, mouse; conditions: 20 mg/kg per day
Protocol: The human HCC cell line FOCUS is known to be a highly aggressive tumor forming cell line in vivo. To investigate in vivo anti-tumor efficacy of the ASPH inhibitor, MO-1-1100 at 20 mg/kg per day was administered on 5 consecutive days for 2 weeks and every other day thereafter. […] Such findings indicate that any ASPH expressing human tumor are responsive to these specific β-hydroxylase inhibitors. These ASPH inhibitor compounds represent a class of anti-tumor agents that has substantial anti-tumor activity against a large number of solid human tumors known to have a dismal prognosis.

NC1=C(OS(=O)(=O)Cc2ccccc2)C(=O)C(c2ccc(Cl)cc2)O1 (racemic) [MO-1-1100]
invasiveness [1]: significantly reduced; also recorded: significantly inhibited
cell migration / motility [2]: significantly inhibited
migrating and adherent cells [2]: significantly reduced
population of non-adherent cells [2]: unchanged
total migrated cells [2]: reduced
HPAFH tumor formation, growth rate ([3]; i.p. 50 mg/kg, daily for five days followed by every other day): substantial inhibition
PC tumor growth (tumor volume, tumor weight) ([3]; i.p. injection (20 mg/kg/mouse), FIG. 4 legend): anti-tumor effect
colony formation [4]: reduced colony formation; also recorded: strikingly inhibited
colony formation, inhibition rate ([4]; 3 weeks): 36.8%
decreased cell viability [5]: not
OD (optical density) value, MTT [6]: dose-dependently decreased
ASPH binding [7]: confirmed to demonstrate ASPH binding
cell viability, inhibition rate [8]: 37.9%
cell viability, inhibition rate [9]: 50%
signs of wasting or other adverse effects relative to control mice [10]: None of the MO-1-1100 treated mice showed signs
tolerability [10]: tolerated well
HCC subcutaneous xenograft growth ([10]; 5 consecutive days for 2 weeks and every other day thereafter): significantly reduced; also recorded: strikingly reduces
tumor volumes reduced, average, compared to control mice ([10]; day 12 following treatment): 31.7%

Source: patent US10106532B2, “Inhibitors of beta-hydroxylase for treatment of cancer” (MIDWESTERN UNIVERSITY, priority 2012, dated 2018)
